Results as given in US11530206B2, “Phenylaminopyrimidine amide autophagy inhibitors and methods of use thereof” (Deciphera Pharmaceuticals, LLC, priority 2019, dated 2022).

Tests used:
ULK1 kinase [1] = target: T1, ULK1 kinase (Homo sapiens, UniProt O75385); experiment: Biochemical assay for ULK1.2 (coupled pyruvate kinase/lactate dehydrogenase assay); conditions: 19 nM ULK1 (residues 1-314, His tag), myelin basic protein, 1 mM ATP
T1 construct: purchased Eurofins 14-959
T1 sequence (O75385 with tags, fused parts or gaps): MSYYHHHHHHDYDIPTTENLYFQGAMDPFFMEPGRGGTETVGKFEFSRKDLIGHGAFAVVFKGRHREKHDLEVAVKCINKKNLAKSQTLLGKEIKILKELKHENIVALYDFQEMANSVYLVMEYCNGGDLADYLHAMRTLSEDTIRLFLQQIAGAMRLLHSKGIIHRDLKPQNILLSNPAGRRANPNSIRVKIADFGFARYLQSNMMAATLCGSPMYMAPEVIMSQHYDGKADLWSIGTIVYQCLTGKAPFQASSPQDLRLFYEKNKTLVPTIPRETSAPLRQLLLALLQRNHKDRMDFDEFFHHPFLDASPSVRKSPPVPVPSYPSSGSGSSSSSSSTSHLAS
Description: Biochemical Assay for ULK1.2 (SEQ. ID NO: 1)
Inhibition of ULK1 was measured by adding serial diluted test compound (final assay concentration of 1% DMSO). A decrease in absorption at 340 nm was monitored continuously for 6 hours at 30° C. on a multi-mode microplate reader (BioTek). The reaction rate was calculated using the 2-3 h time frame. The reaction rate at each concentration of compound was converted to percent inhibition using controls (i.e. reaction with no test compound and reaction with a known inhibitor) and IC50 values were calculated by fitting a four-parameter sigmoidal curve to the data using Prism (GraphPad software).

ULK2 kinase = target: T2, ULK2 kinase (Homo sapiens, UniProt Q8IYT8); experiment: Biochemical assay for ULK2 (coupled pyruvate kinase/lactate dehydrogenase assay); conditions: 9.7 nM ULK2 (residues 1-306, GST and His tag), myelin basic protein, 1 mM ATP; read-out: ULK2.2
T2 construct: purchased Eurofins 14-772
T2 sequence (Q8IYT8 with tags, fused parts or gaps): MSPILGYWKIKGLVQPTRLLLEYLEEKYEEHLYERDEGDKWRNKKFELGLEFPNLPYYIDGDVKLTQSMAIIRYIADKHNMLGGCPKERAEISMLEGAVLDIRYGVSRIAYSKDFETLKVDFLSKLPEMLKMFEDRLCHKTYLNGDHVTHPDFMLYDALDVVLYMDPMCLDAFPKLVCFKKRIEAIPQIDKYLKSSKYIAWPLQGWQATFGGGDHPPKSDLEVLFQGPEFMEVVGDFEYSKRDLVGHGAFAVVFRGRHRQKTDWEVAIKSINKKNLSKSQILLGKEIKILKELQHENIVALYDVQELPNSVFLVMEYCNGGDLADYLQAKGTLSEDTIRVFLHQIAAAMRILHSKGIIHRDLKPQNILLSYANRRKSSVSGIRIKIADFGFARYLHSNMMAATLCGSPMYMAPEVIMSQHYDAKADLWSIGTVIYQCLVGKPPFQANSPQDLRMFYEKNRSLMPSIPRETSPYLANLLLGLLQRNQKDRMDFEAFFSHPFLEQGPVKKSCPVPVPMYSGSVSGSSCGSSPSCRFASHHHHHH
Description: Example 132. Biochemical Assay for ULK2 (SEQ. ID NO: 3)
Activity of ULK2 kinase was determined spectroscopically using a coupled pyruvate kinase/lactate dehydrogenase assay that continuously monitors the ATP hydrolysis-dependent oxidation of NADH (e.g., Schindler et al. Science (2000) 289: 1938-1942). Assays were conducted in 384-well plates (100 uL final volume) using 9.7 nM ULK2 (Eurofins CAT #14-772), 0.25 mg/mL myelin basic protein, 1.5 units pyruvate kinase, 2.1 units lactate dehydrogenase, 1 mM phosphoenol pyruvate, 0.28 mM NADH and 1 mM ATP in assay buffer (100 mM Tris, pH 7.5, 15 mM MgCl2, 0.5 mM DTT, 0.1% octyl-glucoside, 0.002% (w/v) BSA, and 0.002% Triton X-100). Inhibition of ULK2 was measured by adding serial diluted test compound (final assay concentration of 1% DMSO). A decrease in absorption at 340 nm was monitored continuously for 6 hours at 30° C. on a multi-mode microplate reader (BioTek). The reaction rate was calculated using the 2-3 h time frame. The reaction rate at each concentration of compound was converted to percent inhibition using controls (i.e. reaction with no test compound and reaction with a known inhibitor) and IC50 values were calculated by fitting a four-parameter sigmoidal curve to the data using Prism (GraphPad software).

ULK kinase [2] = experiment: pATG13 levels of mutant KRas A549 cells after treatment with ULK inhibitors in combination with trametinib (ELISA); format: cell-based, human; conditions: A549 (KRAS mutant) lung cancer cells, 250 nM trametinib, overnight, pS318-ATG13
Method in brief: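 Lysates with phosphatase/protease inhibitors assayed by pATG13 ELISA, A450 minus A540 background and blank-corrected. % ATG13 phosphorylation versus DMSO controls fitted to IC50.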

ULK kinase [3] = experiment: pATG13 levels of mutant KRas MiaPaCa-2 cells after treatment with ULK inhibitors in combination with trametinib (ELISA); format: cell-based, human; conditions: MiaPaCa-2 pancreatic cancer cells, 250 nM trametinib, overnight, pS318-ATG13
Method in brief: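 MiaPaCa-2 cells in DMEM with 10% FBS and 2.5% horse serum were pretreated with trametinib or DMSO, then given a test-compound dose response overnight at 37° C. Lysates were assayed for phospho-ATG13 by ELISA (A450 minus A540 background, blank-corrected). % phosphorylation was calculated relative to controls and fitted to IC50.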

ULK kinase [4] = experiment: pATG13 levels of mutant KRas HCT-116 cells after treatment with ULK inhibitors in combination with trametinib (ELISA); format: cell-based, human; conditions: HCT-116 colon cancer cells, 250 nM trametinib, overnight, pS318-ATG13
Description: The following day, 10 μL of media containing trametinib or DMSO as a control was added to wells. […] A dose response of a test compound (0.6 μL per well) was added. DMSO (0.6 μL) was added to control wells. The plate was briefly shaken to mix wells and then incubated at 37° C. overnight. The next day, the media was aspirated and cells were washed with Dulbecco's Phosphate Buffered Saline (Gibco). Cells were lysed using MPER lysis buffer (Pierce, Rockford, Ill.) containing Halt Phosphatase and Protease Inhibitors (Pierce, Rockford, Ill.) and Phosphatase inhibitor cocktail 2 (Sigma, St. Louis, Mo.) at 4° C. for 10 minutes with shaking.
(§1) Plate wells were washed with ELISA wash buffer. Cell lysate was added to wells and incubated at room temperature for 2 hours. Plate wells were washed with ELISA wash buffer. […] Plate wells were washed with ELISA wash buffer. […] Plate wells were washed with ELISA wash buffer. […] The reaction was stopped with 2N Sulfuric Acid. The plate was analyzed at on a plate reader measuring absorbance at 450 nm and 540 nm (background). Signal was calculated by first subtracting the background absorbance at 540 nm from the absorbance at 450 nm for each well. Next, the background corrected absorbance at 450 nm from blank wells was subtracted from test wells. Data was compared to control wells to determine % ATG13 phosphorylation. GraphPad Prism was used to calculate IC50 values.

ULK1 kinase [5] = target: T3, ULK1 kinase (Homo sapiens, UniProt O75385, E37A/K38A); experiment: Biochemical assay for ULK1.3 (coupled pyruvate kinase/lactate dehydrogenase assay, peptide substrate); conditions: 0.1 nM ULK1 (residues 1-283), 1 mM ATP
T3 construct: purchased Beryllium
T3 sequence (O75385 1-283 E37A/K38A): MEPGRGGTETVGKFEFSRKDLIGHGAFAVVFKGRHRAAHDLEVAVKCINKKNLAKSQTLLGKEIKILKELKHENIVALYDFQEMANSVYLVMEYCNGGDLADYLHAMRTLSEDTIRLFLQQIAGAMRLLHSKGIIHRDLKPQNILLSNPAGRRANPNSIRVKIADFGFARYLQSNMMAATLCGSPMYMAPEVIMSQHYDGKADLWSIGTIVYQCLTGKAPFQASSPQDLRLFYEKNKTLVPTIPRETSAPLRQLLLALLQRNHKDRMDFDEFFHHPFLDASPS
Method in brief: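 ULK1.3 activity was followed by continuous decrease in 340 nm absorbance over 6 h at 30 °C with 1% DMSO final. Rates were taken from the 2–3 h window and converted to percent inhibition against no-compound and known-inhibitor controls. IC50 values came from curve fitting.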

ULK kinase [6] = experiment: pATG13 levels of mutant BRAF A375 cells after treatment with ULK inhibitors in combination with trametinib (ELISA); format: cell-based, human; conditions: A375 malignant melanoma cells (mutant BRAF), 250 nM trametinib, overnight, pS318-ATG13
Description: A375 human malignant melanoma cancer cells (20000 cells/well) were added to a 96-well tissue-culture treated plate in 100 μL of pre-warmed DMEM medium supplemented with 10% characterized fetal bovine serum (Invitrogen, Carlsbad, Calif.), 100 units/mL penicillin G, and 100 μg/mL streptomycin and allowed to grow overnight at 37° C., 5% CO2, and 95% humidity. The following day, 100 μL of media containing trametinib or DMSO as a control was added to wells. […] A dose response of a test compound (0.5 μL per well) was added. DMSO (0.5 μL) was added to control wells. The plate was briefly shaken to mix wells and then incubated at 37° C. overnight. The next day, the media was aspirated and cells were washed with Dulbecco's Phosphate Buffered Saline (Gibco). Cells were lysed using MPER lysis buffer (Pierce, Rockford, Ill.) containing Halt Phosphatase and Protease Inhibitors (Pierce, Rockford, Ill.) and Phosphatase inhibitor cocktail 2 (Sigma, St. Louis, Mo.) at 4° C. for 10 minutes with shaking.
as §1

LRRK2 kinase = target: T4, LRRK2 kinase (Homo sapiens, UniProt Q5S007); experiment: Biochemical assay for LRRK2 (coupled pyruvate kinase/lactate dehydrogenase assay); conditions: 26.4 nM LRRK2 (residues 970-2528), peptide substrate, 1 mM ATP
T4 construct: purchased Thermo Fisher
T4 sequence (Q5S007 with tags, fused parts or gaps): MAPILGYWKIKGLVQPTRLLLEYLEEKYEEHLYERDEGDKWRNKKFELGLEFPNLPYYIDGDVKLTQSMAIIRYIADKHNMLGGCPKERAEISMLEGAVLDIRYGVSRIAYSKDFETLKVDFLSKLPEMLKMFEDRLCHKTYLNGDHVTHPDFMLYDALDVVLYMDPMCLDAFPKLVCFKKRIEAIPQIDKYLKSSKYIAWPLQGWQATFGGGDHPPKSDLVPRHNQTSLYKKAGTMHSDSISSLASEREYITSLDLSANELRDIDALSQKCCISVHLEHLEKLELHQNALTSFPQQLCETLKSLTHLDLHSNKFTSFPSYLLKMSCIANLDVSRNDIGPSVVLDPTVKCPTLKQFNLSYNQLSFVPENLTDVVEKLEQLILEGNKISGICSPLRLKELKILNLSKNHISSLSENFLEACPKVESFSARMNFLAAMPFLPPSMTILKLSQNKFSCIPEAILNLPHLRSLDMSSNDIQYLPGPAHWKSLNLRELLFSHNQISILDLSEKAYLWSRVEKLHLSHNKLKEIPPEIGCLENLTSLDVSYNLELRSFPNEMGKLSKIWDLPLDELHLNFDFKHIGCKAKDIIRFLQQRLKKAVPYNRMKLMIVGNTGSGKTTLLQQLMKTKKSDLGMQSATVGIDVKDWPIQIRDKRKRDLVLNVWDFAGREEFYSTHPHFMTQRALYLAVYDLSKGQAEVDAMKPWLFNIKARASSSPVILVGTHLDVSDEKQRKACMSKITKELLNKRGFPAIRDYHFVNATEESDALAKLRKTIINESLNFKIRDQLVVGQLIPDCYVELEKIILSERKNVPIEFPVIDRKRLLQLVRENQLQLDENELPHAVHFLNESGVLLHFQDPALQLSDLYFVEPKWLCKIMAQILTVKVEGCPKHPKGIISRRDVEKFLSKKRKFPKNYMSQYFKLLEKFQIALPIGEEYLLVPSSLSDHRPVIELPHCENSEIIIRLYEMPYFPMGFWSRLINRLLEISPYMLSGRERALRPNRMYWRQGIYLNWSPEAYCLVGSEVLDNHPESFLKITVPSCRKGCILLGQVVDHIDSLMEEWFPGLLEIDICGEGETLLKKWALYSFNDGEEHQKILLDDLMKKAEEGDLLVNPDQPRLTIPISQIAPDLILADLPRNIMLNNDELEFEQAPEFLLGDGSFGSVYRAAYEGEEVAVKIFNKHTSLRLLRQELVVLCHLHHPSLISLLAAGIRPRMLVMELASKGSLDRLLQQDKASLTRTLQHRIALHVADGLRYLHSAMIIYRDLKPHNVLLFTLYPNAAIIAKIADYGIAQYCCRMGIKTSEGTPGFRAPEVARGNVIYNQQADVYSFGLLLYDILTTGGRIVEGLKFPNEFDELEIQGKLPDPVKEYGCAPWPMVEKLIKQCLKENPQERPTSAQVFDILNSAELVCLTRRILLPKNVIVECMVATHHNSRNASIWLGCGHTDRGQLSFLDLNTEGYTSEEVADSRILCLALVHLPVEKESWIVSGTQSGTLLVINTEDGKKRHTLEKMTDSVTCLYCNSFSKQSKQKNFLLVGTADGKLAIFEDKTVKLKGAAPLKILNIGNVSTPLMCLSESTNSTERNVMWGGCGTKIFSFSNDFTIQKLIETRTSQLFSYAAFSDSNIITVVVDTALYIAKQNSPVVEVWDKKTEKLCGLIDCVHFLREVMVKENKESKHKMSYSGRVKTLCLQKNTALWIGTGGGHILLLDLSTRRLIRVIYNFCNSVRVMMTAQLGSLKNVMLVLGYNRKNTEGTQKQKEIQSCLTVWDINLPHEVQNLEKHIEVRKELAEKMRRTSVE
Method in brief: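 Recombinant LRRK2 (26.4 nM) with 0.1 mM peptide substrate and 1 mM ATP in Tris pH 7.5/MgCl2 buffer; ADP production coupled via PK/LDH to NADH oxidation, A340 read continuously 6 h at 30 °C. Rates from 2–3 h window converted to % inhibition versus no-compound and reference-inhibitor controls; IC50 fitted.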

Structure (SMILES)	IC50 (ULK1 kinase [1]) [nM]	IC50 (ULK2 kinase) [nM]	IC50 (ULK kinase [2]) [nM]	IC50 (ULK kinase [3]) [nM]	IC50 (ULK kinase [4]) [nM]	IC50 (ULK1 kinase [5]) [nM]	IC50 (ULK kinase [6]) [nM]	IC50 (LRRK2 kinase) [nM]
Cc1cc(N2CCNCC2)ccc1Nc1ncc(C(F)(F)F)c(NCCCN2CCCOC2=O)n1 [Example 37]			100 to 300	10 to 100		1 to 25	300 to 600	100 to 300
CCc1cc(N2CCN3CCC[C@@H]3C2)ccc1Nc1ncc(C(F)(F)F)c(NCCCN2CCCOC2=O)n1 [Example 106]			10 to 100	10 to 100	10 to 100	1 to 25		100 to 300
CCN1CCN(c2ccc(Nc3ncc(C(F)(F)F)c(NCCCN4CCOCCC4=O)n3)c(C(C)C)c2)CC1 [Example 73]	1 to 25	100 to 500	100 to 300	100 to 300	10 to 100		10 to 100	
Cc1cc(N2CCNCC2)ccc1Nc1ncc(C(F)(F)F)c(NCCCN2CCOCCC2=O)n1 [Example 75]			100 to 300	10 to 100	100 to 300	1 to 25	100 to 300	
O=C1CCOCCN1CCCNc1nc(Nc2ccc(N3CCNCC3)cc2C2CC2)ncc1C(F)(F)F [Example 85]			10 to 100	10 to 100	100 to 300	1 to 25	100 to 300	
CCc1cc(N2CCN(C)CC2)ccc1Nc1ncc(Br)c(NCCCN2CCCCC2=O)n1 [Example 23, 1-(3-((5-bromo-2-((2-ethyl-4-(4-methylpiperazin-1-yl)phenyl)amino)pyrimidin-4-yl)amino)propyl)piperidin-2-one]	25 to 100	100 to 500	10 to 100	10 to 100	10 to 100		10 to 100	
CCc1cc(N2CC3CCC(C2)N3C)ccc1Nc1ncc(C(F)(F)F)c(NCCCN2CCCOC2=O)n1 [Example 69]			10 to 100	10 to 100	10 to 100	1 to 25		300 to 600
CCc1cc(N2CCN3CCC[C@@H]3C2)ccc1Nc1ncc(C(F)(F)F)c(NCCCN2CCOCCC2=O)n1 [Example 105]			10 to 100	10 to 100	10 to 100	1 to 25		1 to 100

More lines, now with the values ahead:

IC50 (ULK1 kinase [1]) [nM]	IC50 (ULK2 kinase) [nM]	IC50 (ULK kinase [2]) [nM]	IC50 (ULK kinase [3]) [nM]	IC50 (ULK kinase [4]) [nM]	IC50 (ULK1 kinase [5]) [nM]	IC50 (ULK kinase [6]) [nM]	IC50 (LRRK2 kinase) [nM]	Structure (SMILES)
1 to 25	25 to 100	10 to 100	10 to 100	10 to 100				CCc1cc(N2CCN(C)CC2)ccc1Nc1ncc(C(F)(F)F)c(NCCCN2CCCOCC2=O)n1 [Example 54]
1 to 25	1 to 25	100 to 300	10 to 100	10 to 100		10 to 100		CCc1cc(N2CCN(C)CC2)ccc1Nc1ncc(C(F)(F)F)c(NCCCN2CCCCC2=O)n1 [Example 11]
100 to 500	> 500	100 to 300	10 to 100	10 to 100			100 to 300	CCc1cc(N2CCN(C)CC2)ccc1Nc1ncc(Cl)c(NCCCN2CCCOCC2=O)n1 [Example 58]
1 to 25		100 to 300	100 to 300	10 to 100		300 to 600		CCN1CCN(c2ccc(Nc3ncc(C(F)(F)F)c(NCCCN4CCCOCC4=O)n3)c(C(C)C)c2)CC1 [Example 60]
		100 to 300	300 to 600	100 to 300	25 to 100	300 to 600	100 to 300	CN1CCN(c2ccc(Nc3ncc(C(F)(F)F)c(NCCCN4CCOCC4=O)n3)c(C3CC3)c2)CC1 [Example 47]
1 to 25	25 to 100	300 to 600	100 to 300	100 to 300				Cc1cc(N2CCN(C)CC2)ccc1Nc1ncc(C(F)(F)F)c(NCCCN2CCCCC2=O)n1 [Example 20]
